Test results from patent publication US6413967B1, “Inhibition of novel calcium entry pathway in electrically non-excitable cells acting as an anti-proliferative therapy” (The University of Virginia Patents Foundation, priority 1995, dated 2002).

Columns and labels:
Assay type in all cases: cell-based, human
[1] = system: Ca^2+ entry pathway in Jurkat cells; assay: thapsigargin-stimulated Ca2+ entry measured with Ca2+-sensitive dyes (indo-1, fluo-3)
Description: Lymphocytes were suspended in culture medium at 37° C. for 1 h in the presence of 1 μM of the Ca^2+ indicator dye indo-1 /AM. Cells were washed twice in buffer A (140 mM NaCl, 3 mM KCl, 1 mM CaCl2, 1 mM MgCl2, 0.1% D-glucose, 1% FBS, 10 mM HEPES, pH 7.4) and were suspended at a final concentration of 1×10^6 cells/ml in buffer A. The excitation wavelength was 340 nm and emission was monitored at 398 nm in an SLM 8000 spectrofluorometer (SLM/Aminco, Urbana, Ill.), with the temperature maintained at 37° C. Data are plotted as relative fluorescence intensity at 398 nm as a measure of [Ca^2+]i. For FIG. 7, indo-1 emission was monitored at 398 nm and 480 nm and [Ca^2+]i was determined as described previously (Gray et al, J. Immunol (1987) 138:63; Haverstick et al, Mol. Biol. Cell (1993) 4:173).
Jurkat cells were loaded with indo-1/AM as described above. The excitation wavelength was 340 nm and emission was measured at 441 nm. The fluorescence of indo-1 at 441 nm is insensitive to changes in [Ca^2+]i (Sage et al, Biochem. J. (1989) 258:923) and is plotted as relative fluorescence intensity.
Because amiloride interferes with the fluorescence of indo-1 (Wacholtz et al, J. Immunol. (1992) 149:1912), fluo-3 was used to monitor [Ca^2+]i in the presence of amiloride. Jurkat cells were suspended in culture medium at 37° C. for 1 h in the presence of 1 μM fluo-3/AM and 1 mM probenecid to decrease dye leakage (DiVirgilio et al, Methods Cell Biol. (1989) 31:453). After two washes in buffer A, cells were suspended at a concentration of 1×10^6 cells/ml in buffer A with 1 mM probenecid and were maintained in a cuvette at 37° C. The excitation wavelength was 506 nm and the emission was monitored at 526 nm. Data are presented sa relative fluorescence intensity at 526 nm.

Jurkat T cells = assay: Jurkat cell proliferation, tetrazolium dye; conditions: 48 hours
Description: The effect of various drugs on the proliferation of Jurkat T cells, MDA-468 human breast cancer cells and PC3 human prostate cancer cells was determined by incubating the cells with the indicated concentrations of drug for 48 hours. The number of viable cells remaining at the end of the incubation period was evaluated using the procedure outlined in Example 4.
Cells are plated in triplicate in a 96-well flat-bottomed plate (Jurkat: 5e4 cells/well in RPMI-1640 plus 5% fbs; MDA468: 2.5e4 per well in DMEM plus 5% fbs and 11 μg/ml insulin) in the absence (control) or presence of drug at 3, 10, 30, and 100 μM. An additional control of 100 μM drug in RPMI-1640 plus 5% fbs or DMEM plus 5% fbs and 11 μg/Ml insulin with no cells is included with each run to control for possible drug interactions with the dye. The plate is then placed in a 5% CO2 37° C. incubator for 44 to 48 hours. 20 μl of dye solution containing a tetrazolium dye (3-(4,5-dimethylthiazol-2-yl)-5-(3-carboxymethoxyphenyl)-2-(4-sulfophenyl)-2H-tetrazolium, Owen's reagent) plus coupling reagent (phenazine methosulfate) is added to each well, the plate is returned to the incubator, and the absorbance at 490 nm is read using an ELISA plate reader 3 to 4 h (Jurkat cells) or 2 to 3 h (MDA-468 cells) later. All data are presented as percent of control (no drug addition). With this protocol, it is possible to determine the effect of 5 drugs at 4 concentrations in a single 96-well plate as outlined below: […]

[2] = system: [Ca^2+]i in Jurkat T cells; assay: receptor-stimulated Ca2+ influx in Jurkat T cells (anti-CD3 mAb OKT3); conditions: effect the same post- and pre- T cell receptor stimulation; 10 or 30 μM drug
Description: Initially, all drugs are screened using Jurkat T cells incubated with indo-1/AM as outlined below. In the event that there is an effect of the drug on the maximum [Ca^2+]i reached following treatment of the cells with the anti-CD3 mAb […], the drug is evaluated for any effects on the spectral characteristics of indo-1 as outlined in Haverstick and Gray, Mol. Biol. Cell (1993) 4:173. If there is an effect of the drug on the spectral characteristics of indo-1 , the drug is further examined for spectral effects on the combination of fura-red and fluo-3. If there is no effect of the drug on the fura-red/fluo-3 combination, the drug is examined for effects on the maximum [Ca^2+]i reached following OKT3 treatment of cells incubated with 5 μM fura-red and […] as outlined below.
Jurkat cells are incubated in RPMI-1640 plus 5% fbs in the presence of the acetoxymethyl ester of either indo-1 (1 μM) or the combination of fura-red (5 μM) with fluo-3 (1 μM) for one hour at 37° C. Cells are washed three times in buffer A [[…] 4-(2-hydroxyethyl)-1-piperazine ethanesulfonic acid (HEPES), pH 7.4, 3 MM KCl, 1 mM MgCl2, 1 mM CaCl2, 140 mM NaCl, 0.1% glucose] containing 1% fbs and suspended to a final concentration of 1×10^6/ml. Cells are then placed in the 37° C. jacketed cell holder of the SLM 8000C. Antigen receptor engagement is mimicked by the addition of the anti-CD3 monoclonal antibody OKT3 (Gray et al, J. Exp. Med. (1988) 167:1963; Gray et al, J. Immunol. 142:1631). The effect of drug added prior to receptor stimulation or at the plateau phase of Ca^2+ entry is determined as follows:
Prior drug: 10 or 30 μM drug @ 30 seconds, 1 μg/ml OKT3 at 90 seconds
Post drug: 1 μg/ml OKT3 at 30 second, 10 or 30 μM drug @ 120 seconds

Q: What does the source list for `CC(Cc1ccc(O)c(O)c1)C(C)Cc1ccc(O)c(O)c1` (stereo not shown) [NDGA, 4,4′-(2,3-dimethyl-1,4-butanediyl)bis[1,2-benzenediol]]?
A: effect on thapsigargin-stimulated Ca^2+ entry ([1]; 300 nM thapsigargin, amiloride 100 μM (fluo-3), Ni^2+ 1 mM, NDGA 10 μM (indo-1)): inhibited Ca^2+ entry; IC50 ([1]; Homo sapiens, indo-1, n=10, read-out: IC50 for blockade of thapsigargin-stimulated Ca^2+ entry): 5 µM; T cell PROLIF (Jurkat T cells): ↓; T cell [Ca^2+]i [2]: ↓
